# Data published in patent US20250090558A1, “APPLICATION OF M[…] PROMOTING BONE FORMATION AND PREVENTING-TREATING OSTEOPOROSIS” (The First Affiliated Hospital of Zhejiang Chinese Medical …, priority 2023, published 2025).
# How the values were obtained:
# [1] = tested on: mouse model with femoral distal bone defect; test: bone defect repair in mouse model with femoral distal bone defect; type: in vivo
# [2] = tested on: Ppm1a knockout (Ppm1a−/−) mice with bone defect; type: in vivo, mouse
# primary osteoblasts [3] = test: cell counting kit-8 (CCK-8) assay, viability of primary osteoblasts; type: cell-based, mouse
# OVX model mice = test: ovariectomy (OVX) model mouse, estrogen-deficient osteoporosis; type: in vivo; settings: for number of TRAP-positive cells: distal femur sections
# [4] = tested on: livers, hearts, kidneys, and spleens of OVX model mice; test: biosafety evaluation, HE staining of organs in OVX model mice; type: in vivo, mouse; settings: low-dose and high-dose, 8 weeks of intervention
# Text: The livers, hearts, kidneys, and spleens of the mice in the OVX model post-intervention with miltefosine for 8 weeks are collected, and the tissue morphology of these organs is observed through hematoxylin and eosin (HE) staining.
# primary osteoblasts [5] = test: RT-qPCR of osteogenic genes Sp7, Bglap, Alpl in primary osteoblasts; settings: RT-PCR
# Description: After euthanizing 3-5-day-old mouse with CO2, the euthanized mouse is soaked in 70% alcohol for disinfection for 15 minutes. The disinfected mouse is then carefully skinned from a top of the skull, and the skull tissue blocks are placed in an a-modified eagle medium (α-MEM) digestion culture medium containing 1 mg/mL collagenase-A and 1% penicillin/streptomycin. The skull tissue blocks are digested at 37° C. for 6 hours, with the cell tissue blocks being pipetted and blown every hour. After the digestion of the tissue blocks is complete to obtain a mixture, the mixture is filtered through a 70-μm cell strainer, centrifuged at 1000 revolutions per minute (rpm) for 5 minutes, and then resuspended in α-MEM culture medium to obtain mixed cells. The mixed cells are inoculated in a well plate to obtain osteoblasts, and the osteoblasts are cultured in complete α-MEM medium containing 10% fetal bovine serum. When a cell adhesion convergence degree of the osteoblasts reaches 60-70%, the osteoblasts are induced for osteogenic differentiation with an osteogenic culture medium containing ascorbic acid (50 g/mL) and β-glycerophosphate (10 millimoles per liter abbreviated as mM) for 7 days before the cells are collected for the next step of the experiment.
# 1.1.7 Extraction of Messenger Ribonucleic Acid (mRNA) of Cells and Detection of Reverse Transcription Quantitative Polymerase Chain Reaction (RT-qPCR)
# TRIzol reagent (i.e., TRI reagent®) is used to harvest and extract total RNA from the osteoblast cultures. The mRNA is then reverse transcribed into complementary deoxyribonucleic acid (DNA) using the TaqMan reverse transcription kit (Biomake). After that, a real-time quantitative polymerase chain reaction (RT-qPCR) is conducted with the SYBR Premix Ex Taq™ II.
# osteoblasts = test: alkaline phosphatase staining, osteogenic differentiation of osteoblasts; type: cell-based, mouse; settings: in vitro; 2.5 μM, 5.0 μM, 10 μM
# [6] = CT analysis, one week after operation
# [7] = 8 weeks post-OVX, vs control group
structure (smiles),measurement,setting,value
"CCCCCCCCCCCCCCCCOP([O])(=O)OCC[N+](C)(C)C (stereo not drawn) [miltefosine, hexadecylphosphocholine]",BMD in the bone defect repair area,[1]; [6],increase
same,BV/TV in the bone defect repair area,[1]; [6],increase
same,trabecular number (Tb.N) in the bone defect repair area,[1]; [6],increase
same,expression level of osteocalcin (OCN) in the bone defect repair area,"[1]; immunohistochemistry, vs control group",significantly increased
same,bone repair (μ-CT scans of femur),[1]; one week after model creation,effectively accelerate bone repair
same,area of new bone in the bone defect area (SO/FG staining),"[1]; vs control (vehicle) group, one week after operation",significantly larger
same,osteogenic effects in bone defect repair (Micro-CT),[2],could not exert the above osteogenic effects
same,effect on the viability of the primary osteoblasts,primary osteoblasts [3]; 0.5 μM to 20 μM in vitro,no significant effect
same,cell death of the primary osteoblasts,primary osteoblasts [3]; 50 μM,approximately 50%
same,BMD at the distal femur,OVX model mice; 8 weeks post-OVX,significantly increase
same,Conn.Dn,OVX model mice; 8 weeks post-OVX,improve
same,SMI of the bone tissue,OVX model mice; 8 weeks post-OVX,improve
same,"bone loss at the distal femur (histomorphometric analysis, ABH/OG, trabecular bone area fraction)",OVX model mice; 8 weeks post-OVX,reduce bone loss
same,number of osteoblasts on the trabecular bone surface,OVX model mice; 8 weeks post-OVX,increase
same,BV/TV of trabecular bone,OVX model mice; [7],significantly increased
same,Tb.N,OVX model mice; [7],significantly increased
same,Tb.Sp,OVX model mice; [7],markedly reduced
same,Tb.Th,OVX model mice; [7],significantly increased
same,expression level of mature osteoclast marker cathepsin K (CTSK),OVX model mice; control group vs treated groups,no significant difference
same,bone formation by ALP immunohistochemical staining,"OVX model mice; distal femur, 8 weeks post-OVX",significantly promote the bone formation
same,bone formation by immunofluorescence staining for OCN,"OVX model mice; distal femur, 8 weeks post-OVX",significantly promote the bone formation
same,formation of adipocytes (Fabp4 immunohistochemical staining),"OVX model mice; distal femur, 8 weeks post-OVX",no obvious effect
same,number of TRAP-positive cells,OVX model mice; high-dose,slightly reduces
same,bone loss at the distal metaphysis of the femur (micro-CT),"OVX model mice; low-dose and high-dose groups, 8 weeks post-OVX",significantly less
same,number of TRAP-positive cells,OVX model mice; low-dose,does not affect
same,"tissue morphology of livers, hearts, kidneys, and spleens (HE staining)",[4],no obvious lesions or pathological changes
same,expression of osteogenic gene Alpl (mRNA),primary osteoblasts [5],upregulate
same,expression of osteogenic gene Bglap (mRNA),primary osteoblasts [5],upregulate
same,expression of osteogenic gene Sp7 (mRNA),primary osteoblasts [5],upregulate
same,osteogenic differentiation capacity of osteoblasts (alkaline phosphatase staining),osteoblasts,significantly enhance
